This assay has as its target T1, PPO / PO (PPO1-PPO2 heterodimer) (Helicoverpa armigera, UniProt A0A290U614+Q2VIY6).
T1 sequence (A0A290U614 1-684): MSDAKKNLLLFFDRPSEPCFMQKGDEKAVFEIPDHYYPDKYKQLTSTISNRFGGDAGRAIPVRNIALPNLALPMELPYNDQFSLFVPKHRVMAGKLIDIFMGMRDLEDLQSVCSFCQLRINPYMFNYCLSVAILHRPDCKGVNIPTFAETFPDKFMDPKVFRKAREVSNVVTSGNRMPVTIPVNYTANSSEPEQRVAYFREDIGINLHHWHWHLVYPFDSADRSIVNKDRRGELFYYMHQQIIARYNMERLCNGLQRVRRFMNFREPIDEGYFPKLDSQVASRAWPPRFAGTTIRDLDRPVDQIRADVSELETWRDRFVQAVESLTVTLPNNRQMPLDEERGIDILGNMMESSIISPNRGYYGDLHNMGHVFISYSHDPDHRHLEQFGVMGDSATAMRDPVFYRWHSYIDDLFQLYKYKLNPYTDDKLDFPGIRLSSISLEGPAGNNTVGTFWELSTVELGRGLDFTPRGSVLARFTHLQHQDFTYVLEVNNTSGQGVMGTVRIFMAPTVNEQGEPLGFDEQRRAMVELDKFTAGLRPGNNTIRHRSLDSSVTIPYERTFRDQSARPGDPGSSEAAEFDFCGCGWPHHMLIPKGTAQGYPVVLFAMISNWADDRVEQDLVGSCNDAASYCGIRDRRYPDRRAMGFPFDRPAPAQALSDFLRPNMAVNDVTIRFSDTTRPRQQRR
T1 sequence (Q2VIY6 1-698): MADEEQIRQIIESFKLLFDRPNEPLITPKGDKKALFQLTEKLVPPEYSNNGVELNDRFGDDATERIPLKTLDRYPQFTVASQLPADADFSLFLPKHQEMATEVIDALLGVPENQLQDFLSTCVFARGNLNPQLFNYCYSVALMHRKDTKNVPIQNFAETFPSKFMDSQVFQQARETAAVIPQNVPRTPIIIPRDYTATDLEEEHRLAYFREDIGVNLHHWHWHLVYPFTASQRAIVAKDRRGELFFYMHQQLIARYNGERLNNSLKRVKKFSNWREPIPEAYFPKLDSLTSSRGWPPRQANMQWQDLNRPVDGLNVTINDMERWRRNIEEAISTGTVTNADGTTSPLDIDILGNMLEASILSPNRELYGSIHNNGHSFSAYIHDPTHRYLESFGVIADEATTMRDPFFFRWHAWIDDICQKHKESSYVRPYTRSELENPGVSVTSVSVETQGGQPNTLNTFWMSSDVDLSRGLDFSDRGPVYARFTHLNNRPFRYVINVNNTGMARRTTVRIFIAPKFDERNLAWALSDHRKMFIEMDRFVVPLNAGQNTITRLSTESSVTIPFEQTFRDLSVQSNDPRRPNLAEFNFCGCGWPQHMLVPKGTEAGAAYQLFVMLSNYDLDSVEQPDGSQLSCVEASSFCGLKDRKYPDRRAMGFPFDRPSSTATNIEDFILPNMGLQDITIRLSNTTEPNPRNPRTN
Nature of the assay: phenoloxidase assay, dopamine chrome formation. The format is biochemical. The settings on record: PPO activated by CPC.

Experimental findings from paper PMC7215089, “Identification of a Conserved Prophenoloxidase Activation Pathway in Cotton Bollworm Helicoverpa armigera” (Frontiers in Immunology, 2020) are described below.

Consider `NCCc1ccc(O)c(O)c1` [dopamine], for which the “phenoloxidase assay, dopamine chrome formation” value is on record as “production of dopamine chrome (or dopachrome) from dopamine (or dopa)”.
